Measured values published in US20240116985A1, “STAPLED PEPTIDES AND METHODS THEREOF” (priority 2020, published 2024).

Molecular target: T1, full-length beta-Catenin (Uniprot ID P35222) (Homo sapiens, UniProt P35222)
T1 construct: 10 nM full-length beta-Catenin (Uniprot ID P35222)
T1 sequence (P35222 1-781): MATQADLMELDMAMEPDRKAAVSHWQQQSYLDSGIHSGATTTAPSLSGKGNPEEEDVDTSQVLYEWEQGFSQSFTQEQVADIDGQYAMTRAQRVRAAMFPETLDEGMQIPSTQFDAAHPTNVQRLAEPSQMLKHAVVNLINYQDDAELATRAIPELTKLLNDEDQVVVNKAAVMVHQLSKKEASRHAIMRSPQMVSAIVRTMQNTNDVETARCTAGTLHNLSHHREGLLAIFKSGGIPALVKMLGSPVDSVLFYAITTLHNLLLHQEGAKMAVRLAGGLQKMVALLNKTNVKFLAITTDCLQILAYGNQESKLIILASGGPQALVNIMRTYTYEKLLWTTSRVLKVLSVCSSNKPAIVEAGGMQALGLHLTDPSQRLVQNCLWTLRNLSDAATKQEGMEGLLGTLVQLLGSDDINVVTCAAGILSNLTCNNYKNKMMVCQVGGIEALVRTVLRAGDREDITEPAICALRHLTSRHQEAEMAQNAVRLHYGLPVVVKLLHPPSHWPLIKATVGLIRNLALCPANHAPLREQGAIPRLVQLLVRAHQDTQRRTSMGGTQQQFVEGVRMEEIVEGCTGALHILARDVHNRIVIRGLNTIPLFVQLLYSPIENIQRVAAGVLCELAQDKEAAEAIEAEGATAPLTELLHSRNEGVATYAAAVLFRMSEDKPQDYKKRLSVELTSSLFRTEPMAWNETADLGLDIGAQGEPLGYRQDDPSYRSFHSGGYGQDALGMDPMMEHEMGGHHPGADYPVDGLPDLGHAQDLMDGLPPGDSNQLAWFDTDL
Test: Fluorescence polarization IC50 (beta-catenin / 5FAM-TCF4 10-53 competition)
Type: binding
Details: fluorescence polarization; read-out: beta-Catenin FP IC50

| IC50 [nM] | SMILES |
| --- | --- |
| 776 | CC(=O)N1CCC[C@]12CC=CCCCC1(CCCC=CCCCOC(=O)N3CC[C@@](C(=O)N[C@@H](Cc4ccsc4)C(=O)N[C@@H](Cc4csc5ccccc45)C(=O)N[C@@H](CCC(N)=O)C(N)=O)(C3)NC(=O)[C@H](CC(C)C)NC(=O)[C@H](Cc3ccccc3)NC(=O)[C@H](C)NC(=O)[C@H](C)NC(=O)[C@H](CCc3ccc(O)cc3)NC(=O)[C@H](CC(=O)O)NC1=O)NC(=O)[C@H](CC(C)(C)C)NC(=O)[C@H](CC(=O)O)NC2=O (stereo partly drawn) [I-1787, Ac-PL3-Asp-Npg-B5-Asp-hTyr-Ala-Ala-Phe-Leu-PyrS2-3Thi-BztA-Gln-NH2] |
| 183 | CC(=O)N1CCC[C@]12CC=CCCCC1(CCCC=CCCCOC(=O)N3CC[C@@](C(=O)N[C@@H](Cc4ccsc4)C(=O)N[C@@H](Cc4csc5ccccc45)C(=O)N[C@@H](CCC(N)=O)C(N)=O)(C3)NC(=O)[C@H](CCO)NC(=O)[C@H](Cc3ccccc3)NC(=O)[C@H](C)NC(=O)[C@H](C)NC(=O)[C@H](Cc3c[nH]c4ccccc34)NC(=O)[C@H](CC(=O)O)NC1=O)NC(=O)[C@H](CC(C)(C)C)NC(=O)[C@H](CC(=O)O)NC2=O (stereo partly drawn) [I-1789, Ac-PL3-Asp-Npg-B5-Asp-Trp-Ala-Ala-Phe-Hse-PyrS2-3Thi-BztA-Gln-NH2] |
| 935 | CC(=O)N1CCC[C@]12CC=CCCCC1(CCCC=CCCCOC(=O)N3CC[C@@](C(=O)N[C@@H](Cc4ccsc4)C(=O)N[C@@H](Cc4csc5ccccc45)C(=O)N[C@@H](CCC(N)=O)C(N)=O)(C3)NC(=O)[C@H](CC(C)C)NC(=O)[C@H](Cc3ccccc3)NC(=O)[C@H](C)NC(=O)[C@H](C)NC(=O)[C@H](Cc3c(F)c(F)c(F)c(F)c3F)NC(=O)[C@H](CC(=O)O)NC1=O)NC(=O)[C@H](CC(C)(C)C)NC(=O)[C@H](CC(=O)O)NC2=O (stereo partly drawn) [I-1792, Ac-PL3-Asp-Npg-B5-Asp-Pff-Ala-Ala-Phe-Leu-PyrS2-3Thi-BztA-Gln-NH2] |
| 28 | CC(=O)N1CCC[C@]12CC=CCCCC1(CCCC=CCCCOC(=O)N3CC[C@@](C(=O)N[C@@H](Cc4ccsc4)C(=O)N[C@@H](Cc4csc5ccccc45)C(=O)N[C@@H](CCC(N)=O)C(N)=O)(C3)NC(=O)[C@H](CC(C)C)NC(=O)[C@H](Cc3ccccc3)NC(=O)[C@H](C)NC(=O)[C@H](C)NC(=O)[C@H](Cc3c[nH]cn3)NC(=O)[C@H](CC(=O)O)NC1=O)NC(=O)[C@H](CC(C)(C)C)NC(=O)[C@H](CC(=O)O)NC2=O (stereo partly drawn) [I-1795, Ac-PL3-Asp-Npg-B5-Asp-His-Ala-Ala-Phe-Leu-PyrS2-3Thi-BztA-Gln-NH2] |
| 1950 | CC(=O)N1CCC[C@]12CCCCCC[C@@](C)(C(=O)N[C@@H](CC(=O)O)C(=O)N[C@@H](CC(=O)O)C(=O)N[C@@H](C)C(=O)N[C@@H](C)C(=O)N[C@@H](Cc1ccccc1)C(=O)N[C@@H](CC(C)C)C(=O)NC(C)(C)C(=O)N[C@@H](Cc1ccsc1)C(=O)N[C@@H](Cc1csc3ccccc13)C(=O)N[C@@H](CCC(N)=O)C(N)=O)NC(=O)[C@H](CC(C)(C)C)NC(=O)[C@H](CC(=O)O)NC2=O [I-1809, Ac-PL3-Asp-Npg-S5-Asp-Asp-Ala-Ala-Phe-Leu-Aib-3Thi-BztA-Gln-NH2] |
| 416 | CC(=O)N1CCC[C@H]1C(=O)N[C@@H](CC(=O)O)C(=O)N[C@@H](CC(C)(C)C)C(=O)N[C@]1(C)CCCCCCCCOC(=O)N2CC[C@@](C(=O)N[C@@H](Cc3ccsc3)C(=O)N[C@@H](Cc3csc4ccccc34)C(=O)N[C@@H](CCC(N)=O)C(N)=O)(C2)NC(=O)[C@H](CC(C)C)NC(=O)[C@H](Cc2ccccc2)NC(=O)[C@H](C)NC(=O)[C@H](C)NC(=O)[C@H](CC(=O)O)NC(=O)[C@H](CC(=O)O)NC1=O [I-1810, Ac-Pro-Asp-Npg-R5-Asp-Asp-Ala-Ala-Phe-Leu-PyrS2-3Thi-BztA-Gln-NH2] |
| 156 | CC(=O)N1CCC[C@]12CC=CCCCC1(CCCC=CCCCOC(=O)N3CC[C@@](C(=O)N[C@@H](Cc4ccccc4)C(=O)N[C@@H](Cc4c[nH]c5ccccc45)C(=O)N[C@@H](CCC(N)=O)C(N)=O)(C3)NC(=O)[C@H](CC(C)C)NC(=O)[C@H](Cc3ccccc3)NC(=O)[C@H](C)NC(=O)[C@H](C)NC(=O)[C@H](CC(=O)O)NC(=O)[C@H](CC(=O)O)NC1=O)NC(=O)[C@H](CC(C)C)NC(=O)[C@H](CC(=O)O)NC2=O (stereo partly drawn) [I-1811, Ac-PL3-Asp-Leu-B5-Asp-Asp-Ala-Ala-Phe-Leu-PyrS2-Phe-Trp-Gln-NH2] |
| 181 | CC(=O)N1CCC[C@]12CC=CCCCC1(CCCC=CCCOC(=O)N3CC[C@@](C(=O)N[C@@H](Cc4ccsc4)C(=O)N[C@@H](Cc4csc5ccccc45)C(=O)N[C@@H](CCC(N)=O)C(N)=O)(C3)NC(=O)[C@H](CC(N)=O)NC(=O)[C@H](Cc3ccccc3)NC(=O)[C@H](C)NC(=O)[C@H](C)NC(=O)[C@H](CC(=O)O)NC(=O)[C@H](CC(=O)O)NC1=O)NC(=O)[C@H](CC(C)(C)C)NC(=O)[C@H](CC(=O)O)NC2=O (stereo partly drawn) [I-1812, Ac-PL3-Asp-Npg-B5-Asp-Asp-Ala-Ala-Phe-Asn-PyrS1-3Thi-BztA-Gln-NH2] |
| 189 | CC(=O)N1CCC[C@]12CC=CCCCC1(CCCC=CCCOC(=O)N3CC[C@@](C(=O)N[C@@H](Cc4ccsc4)C(=O)N[C@@H](Cc4csc5ccccc45)C(=O)N[C@@H](CCC(N)=O)C(N)=O)(C3)NC(=O)[C@H](CC(C)C)NC(=O)[C@H](Cc3ccccc3)NC(=O)[C@H](C)NC(=O)[C@H](C)NC(=O)[C@H](CC(=O)O)NC(=O)[C@H](CC(=O)O)NC1=O)NC(=O)[C@H](CC(C)(C)C)NC(=O)[C@H](CC(=O)O)NC2=O (stereo partly drawn) [I-1814, Ac-PL3-Asp-Npg-B5-Asp-Asp-Ala-Ala-Phe-Leu-PyrS1-3Thi-BztA-Gln-NH2] |
| 235 | CC(=O)N1CCC[C@]12CC=CCCCC1(CCCC=CCOC(=O)N3CC[C@@](C(=O)N[C@@H](Cc4ccsc4)C(=O)N[C@@H](Cc4csc5ccccc45)C(=O)N[C@@H](CCC(N)=O)C(N)=O)(C3)NC(=O)[C@H](CC(N)=O)NC(=O)[C@H](Cc3ccccc3)NC(=O)[C@H](C)NC(=O)[C@H](C)NC(=O)[C@H](CC(=O)O)NC(=O)[C@H](CC(=O)O)NC1=O)NC(=O)[C@H](CC(C)(C)C)NC(=O)[C@H](CC(=O)O)NC2=O (stereo partly drawn) [I-1816, Ac-PL3-Asp-Npg-B5-Asp-Asp-Ala-Ala-Phe-Asn-PyrS-3Thi-BztA-Gln-NH2] |
| 182 | CC(=O)N1CCC[C@]12CC=CCCCC1(CCCC=CCOC(=O)N3CC[C@@](C(=O)N[C@@H](Cc4ccsc4)C(=O)N[C@@H](Cc4csc5ccccc45)C(=O)N[C@@H](CCC(N)=O)C(N)=O)(C3)NC(=O)[C@H](CC(N)=O)NC(=O)[C@H](Cc3ccccc3)NC(=O)[C@H](C)NC(=O)[C@H](C)NC(=O)[C@H](CC(=O)O)NC(=O)[C@H](CC(=O)O)NC1=O)NC(=O)[C@H](CC(C)(C)C)NC(=O)[C@H](CC(=O)O)NC2=O (stereo partly drawn) [I-1817, Ac-PL3-Asp-Npg-B5-Asp-Asp-Ala-Ala-Phe-Asn-PyrS-3Thi-BztA-Gln-NH2] |
| 615 | CC(=O)N1CCC[C@]12CC=CCCCC1(CCCC=CCCCCC[C@@](C)(C(=O)N[C@@H](Cc3ccsc3)C(=O)N[C@@H](Cc3csc4ccccc34)C(=O)N[C@@H](CCC(N)=O)C(N)=O)NC(=O)[C@H](CC(N)=O)NC(=O)[C@H](Cc3ccccc3)NC(=O)[C@H](C)NC(=O)[C@H](C)NC(=O)[C@H](CC(=O)O)NC(=O)[C@H](CC(=O)O)NC1=O)NC(=O)[C@H](CC(C)(C)C)NC(=O)[C@H](CC(=O)O)NC2=O (stereo partly drawn) [I-1819, Ac-PL3-Asp-Npg-B5-Asp-Asp-Ala-Ala-Phe-Asn-S7-3Thi-BztA-Gln-NH2] |
| 422 | CC(=O)N1CCC[C@]12CC=CCCCC1(CCCC=CCCCCC[C@@](C)(C(=O)N[C@@H](Cc3ccsc3)C(=O)N[C@@H](Cc3csc4ccccc34)C(=O)N[C@@H](CCC(N)=O)C(N)=O)NC(=O)[C@H](CC(C)C)NC(=O)[C@H](Cc3ccccc3)NC(=O)[C@H](C)NC(=O)[C@H](C)NC(=O)[C@H](CC(=O)O)NC(=O)[C@H](CC(=O)O)NC1=O)NC(=O)[C@H](CC(C)(C)C)NC(=O)[C@H](CC(=O)O)NC2=O (stereo partly drawn) [I-1820, Ac-PL3-Asp-Npg-B5-Asp-Asp-Ala-Ala-Phe-Leu-S7-3Thi-BztA-Gln-NH2] |
| 366 | CC(=O)N1CCC[C@]12CCCCCCC1(CCCCCCCCCC[C@@](C)(C(=O)N[C@@H](Cc3ccsc3)C(=O)N[C@@H](Cc3csc4ccccc34)C(=O)N[C@@H](CCC(N)=O)C(N)=O)NC(=O)[C@H](CC(N)=O)NC(=O)[C@H](Cc3ccccc3)NC(=O)[C@H](C)NC(=O)[C@H](C)NC(=O)[C@H](CC(=O)O)NC(=O)[C@H](CC(=O)O)NC1=O)NC(=O)[C@H](CC(C)(C)C)NC(=O)[C@H](CC(=O)O)NC2=O (stereo partly drawn) [I-1825, Ac-PL3-Asp-Npg-B5-Asp-Asp-Ala-Ala-Phe-Asn-S7-3Thi-BztA-Gln-NH2] |

| SMILES | IC50 [nM] |
| --- | --- |
| CC(=O)N1CCC[C@]12CC=CCCCC1(CCCC=CCCCOC(=O)N3CC[C@@](C(=O)N[C@@H](Cc4ccsc4)C(=O)N[C@@H](Cc4csc5ccccc45)C(=O)N[C@@H](CCC(=O)N4CCC(N5CCCCC5)CC4)C(N)=O)(C3)NC(=O)[C@H](CC(C)C)NC(=O)[C@H](Cc3ccccc3)NC(=O)[C@H](C)NC(=O)[C@H](C)NC(=O)[C@H](CN(CC(=O)O)CC(F)(F)F)NC(=O)[C@H](CC(=O)O)NC1=O)NC(=O)[C@H](CC(C)(C)C)NC(=O)[C@H](CC(=O)O)NC2=O (stereo partly drawn) [I-1798, Ac-PL3-Asp-Npg-B5-Asp-TfeGA-Ala-Ala-Phe-Leu-PyrS2-3Thi-BztA-[4Pippip]GlnR-NH2] | 12 |
